Patent publication US11028051B2, “Tetrahydroquinoline-based bromodomain inhibitors” (St. Jude Children's Research Hospital, priority 2016, dated 2021)
Read-outs that look alike come from different tables or passages of the source.

How the values were obtained:
[1] = test system: HDMB03 cells; experiment: cell viability, CellTiter-Glo; type: cell-based, human; settings: Homo sapiens, read-out: EC50 (μM) HDMB03
Procedure: Human G3 medulloblastoma or mouse SHH medulloblastoma cells were grown as neurospheres in supplemented neurobasal medium, as previously described (Kawauchi et al., 2012.)
(§1) After 7 days of treatment, an equal volume of CellTiter-Glo reagent (G7572, Promega) was added and the luminescence signal was measured using an automated Envision plate reader (Perkin-Elmer). Luminescence data were normalized by log10 transformation prior to calculating the percent inhibition using the following equation:
(§2) 100*(negative control mean −compound value)/(negative control mean −positive control mean).
High-throughput assay data were analyzed using Robust Interpretation of Screening Experiments (RISE) application written in Pipeline Pilot (Accelrys, v. 8.5) and the R program (R Development Core Team).
Dose-response curves were calculated by regressing the median percent inhibition obtained over triplicate experiments to log 10-transformed concentrations. Non-linear regression was then performed using the R drc package with the four parameter log-logistic function (LL2.4) (Ritz and Streibig, 2009). Curves were fit under three different constraints: (1) all parameters free, (2) high response fixed to 100, (3) low response fixed to 0; and the best fit from these three nested models was selected using the anova.drc function.

[2] = test system: MV-4-11; experiment: anti-proliferative activity; type: cell-based; settings: Homo sapiens, MV4-11; Table 7
Procedure: as §1, §2

[3] = molecular target: BRDT (Homo sapiens, UniProt Q58F21); experiment: competitive TR-FRET assay, BET-BD with acetylated peptide ligand; type: binding
Procedure: (§3) Inhibitor potency was determined using a competitive TR-FRET assay as detailed herein, measuring interaction of the respective BET-BD with an acetylated peptide ligand (Table 2).

[4] = molecular target: BRD2-BD1 (Homo sapiens (Human), UniProt P25440); experiment: as above; type: binding
Procedure: as §3

[5] = molecular target: BRD2-BD2 (Homo sapiens (Human), UniProt P25440); experiment: as above; type: binding
Procedure: as §3

[6] = molecular target: BRD3-BD1 (Homo sapiens (Human), UniProt Q15059); experiment: as above; type: binding
Procedure: as §3

[7] = test system: c-Myc expression in HDMB03 cells; experiment: c-Myc expression inhibition, high content microscopy (HCM); type: cell-based, human; settings: Homo sapiens, read-out: EC50 (μM) Myc-inhibition
Procedure: 3000 human G3 medulloblastoma or 2000 mouse SHH medulloblastoma cells per well were plated into 384-well plates (6007710, Perkin Elmer) in 30 μL of supplemented neurobasal medium using a Wellmate automated dispenser (Thermo Matrix). After 24 hours, 125 nl of compound was transferred via pin tool, resulting in a final drug concentration from 2 nM to 40 μM. 72 hours after adding the drug, the plates were fixed with 4% formaldehyde for 20 min. After fixation the cells were then washed 3 times with 75 μl of PBS. The cells were then permeabilized with 0.1% Triton-X 100 for 15 minutes at 25° C. and blocked using 1% BSA in PBS for 1 hour at 25° C. The primary antibody against c-Myc Ab (#9402, Cell Signaling) at a 1:400 dilution was diluted in 1% BSA in PBS. This mixture was added to each well before incubation overnight at 4° C. Each well was then washed 3 times with PBS using a Biotek ELX405 Select plate washer, and incubated for 1 hour at 25° C. with a solution containing 1/400 goat α-rabbit-Alexa-488 (4412S, Cell Signaling) and 1 μM Hoechst 33342 to detect nuclear material (H3570, Molecular Probes). Two images were captured of each well at 10× using a GE Healthcare InCell 6000 at 405 nM to detect nuclear staining and 488 nM to detect c-Myc. All data were analyzed using the multi-target analysis algorithm of the GE InCell Analyzer Workstation software. The number of nuclear objects in each well, as well as all nuclear measurements, was determined through nuclear masks over the Hoechst staining. C-Myc staining was then measured using top-hat segmentation in the entire cell.

[8] = molecular target: BRDT(1) (Homo sapiens (Human), UniProt Q58F21); experiment: BROMOscan KD determination; type: binding; settings: Table 10
Excerpt: (§4) DiscoverX® can screen compounds against all ˜42 bromodomains (a service called BROMOscan) and perform follow-up KD determination. This service is considered the industrial standard for bromodomain inhibitor comparisons. […] Dots are symbolic of inhibition of the compound at this concentration; the larger the size of the dot, the greater the activity of the compound. […] Though these compounds are selective for the BET family, the selectivity within the BET family is poor. The results of a competitive binding experiment between compounds 19 (left), 41 (center), and 56 (right) (at a single concentration, 1 μM) and a control for each of the bromodomains are shown in FIG. 5.

[9] = molecular target: BRD2(1) (Homo sapiens (Human), UniProt P25440); experiment: BROMOscan KD determination; type: binding; settings: Table 10
Excerpt: as §4

[10] = molecular target: BRDT(2) (Homo sapiens (Human), UniProt Q58F21); experiment: BROMOscan KD determination; type: binding; settings: for T(1)/T(2): BROMOscan KD ratio; for Kd: BROMOscan, Table 10
Excerpt: as §4

[11] = molecular target: BRD2(2) (Homo sapiens (Human), UniProt P25440); experiment: BROMOscan KD determination; type: binding; settings: for [2(1)/2(2)]: BROMOscan KD ratio; for Kd: BROMOscan, Table 10
Excerpt: as §4

[12] = molecular target: BRD4(1) (Homo sapiens (Human), UniProt O60885); experiment: BROMOscan KD determination; type: binding; settings: Table 10
Excerpt: (§5) DiscoverX® can screen compounds against all ˜42 bromodomains (a service called BROMOscan) and perform follow-up KD determination. This service is considered the industrial standard for bromodomain inhibitor comparisons.

[13] = molecular target: BRD4(2) (Homo sapiens (Human), UniProt O60885); experiment: BROMOscan KD determination; type: binding; settings: for 4(1)/4(2): BROMOscan KD ratio; for Kd: BROMOscan, Table 10
Excerpt: as §5

[14] = molecular target: BRD3(1) (Homo sapiens (Human), UniProt Q15059); experiment: BROMOscan KD determination; type: binding; settings: Table 10
Excerpt: as §5

[15] = molecular target: BRD3(2) (Homo sapiens (Human), UniProt Q15059); experiment: BROMOscan KD determination; type: binding; settings: for 3(1)/3(2): BROMOscan KD ratio; for Kd: BROMOscan, Table 10
Excerpt: as §5

[16] = molecular target: BRD4-BD1 (Homo sapiens (Human), UniProt O60885); experiment: competitive TR-FRET assay, BET-BD with acetylated peptide ligand; type: binding; settings: BRD4-BD1; Table 11 additional modifications; read-out: 4.1 EC50
Procedure: as §3

[17] = Table 6, head names no target, BRDT by comparison with Table 4, read-out: EC50
[18] = Table 6, read-out: EC50 (μM) BRD2(1)
[19] = Table 6, read-out: EC50 (μM) BRD2(2)
[20] = Table 6, read-out: EC50 (μM) BRD3(1)

Sequence of BRD2(1) (P25440 74-180): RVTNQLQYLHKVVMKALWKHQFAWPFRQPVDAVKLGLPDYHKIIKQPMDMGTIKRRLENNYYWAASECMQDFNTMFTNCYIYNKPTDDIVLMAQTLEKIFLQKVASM
Sequence of BRD2-BD1 (P25440 74-180): as above
Sequence of BRD3(2) (Q15059 306-415): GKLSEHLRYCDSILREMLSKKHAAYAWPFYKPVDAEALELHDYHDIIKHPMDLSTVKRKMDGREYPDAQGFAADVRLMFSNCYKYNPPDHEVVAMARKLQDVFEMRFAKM
Sequence of BRD2-BD2 (P25440 344-453): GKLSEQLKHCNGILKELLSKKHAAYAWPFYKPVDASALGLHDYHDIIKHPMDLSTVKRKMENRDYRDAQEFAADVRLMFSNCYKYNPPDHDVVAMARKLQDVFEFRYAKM
Sequence of BRD2(2) (P25440 344-453): as above
Sequence of BRD3-BD1 (Q15059 34-140): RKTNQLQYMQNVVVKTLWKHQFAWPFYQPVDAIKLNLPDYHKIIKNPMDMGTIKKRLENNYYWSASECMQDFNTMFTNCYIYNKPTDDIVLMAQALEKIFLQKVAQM
Sequence of BRD3(1) (Q15059 34-140): as above

Row | Structure (SMILES) | EC50 [2] | EC50 [3, 17] | EC50 [4, 18] | [2(1)/2(2)] ([5]; Table 6, ratio of EC50) | EC50 [5, 19] | EC50 [6, 20] | EC50 ([7]; HD-MB03, Table 7) | Kd [8] | Kd [9] | T(1)/T(2) [10] | Kd [10] | [2(1)/2(2)] [11] | Kd [11] | Kd [12] | 4(1)/4(2) [13] | Kd [13] | Kd [14] | 3(1)/3(2) [15] | Kd [15] | EC50 ([1]; HD-MB03, Table 7) | other results
1 | CCCCNc1cccc(-c2ccc3c(c2)[C@H](Nc2ccc(C(=O)OC)cc2)C[C@H](C)N3C(C)=O)c1 [compound 45] | 0.083 µM | 7300 nM | 2.6 µM | 16.25 | 0.16 µM | 2.1 µM | 0.38 µM | – | – | – | – | – | – | – | – | – | – | – | – | 0.56 µM | –
2 | CCCNc1cccc(-c2ccc3c(c2)[C@H](Nc2ccc(C(=O)OC)cc2)C[C@H](C)N3C(C)=O)c1 [compound 46] | 0.018 µM | 2600 nM | 1.3 µM | 7.6 | 0.17 µM | 1 µM | 0.34 µM | – | – | – | – | – | – | – | – | – | – | – | – | 0.35 µM | –
3 | CC(=O)Nc1cccc(-c2ccc3c(c2)[C@H](Nc2ccccc2C(F)(F)F)C[C@H](C)N3C(C)=O)c1 [compound 41] | – | – | – | – | – | – | – | 290 nM | 790 nM | 9.4 | 31 nM | 49.4 | 16 nM | 410 nM | 64.1 | 6.4 nM | 500 nM | 138.9 | 3.6 nM | – | EC50 ([1]; HD-MB03, Table 5): 1.6 µM; EC50 ([3]; Table 4, read-out: BRDT EC50): 53000 nM; EC50 ([4]; Table 4, read-out: EC50 (μM) BRD2(1)): 70 µM; [2(1)/2(2)] ([5]; Table 4, ratio of EC50): 57; EC50 ([5]; Table 4, read-out: EC50 (μM) BRD2(2)): 0.35 µM; EC50 ([6]; Table 4, read-out: BRD3(1)): 20 µM; EC50 ([7]; HD-MB03, Table 5): 6.2 µM

Second part, led by results:

Row | EC50 [2] | EC50 [3, 17] | EC50 [4, 18] | [2(1)/2(2)] ([5]; Table 6, ratio of EC50) | EC50 [5, 19] | EC50 [6, 20] | EC50 ([7]; HD-MB03, Table 7) | Kd [8] | Kd [9] | T(1)/T(2) [10] | Kd [10] | [2(1)/2(2)] [11] | Kd [11] | Kd [12] | 4(1)/4(2) [13] | Kd [13] | Kd [14] | 3(1)/3(2) [15] | Kd [15] | Structure (SMILES) | EC50 ([1]; HD-MB03, Table 7) | other results
4 | – | – | – | – | – | – | – | 17 nM | 23 nM | 6.1 | 2.8 nM | 13.5 | 1.7 nM | 14 nM | 12.7 | 1.1 nM | 11 nM | 6.9 | 1.6 nM | COC(=O)c1ccc(N[C@@H]2C[C@H](C)N(C(C)=O)c3ccc(-c4ccnn4C)cc32)cc1 [compound 49] | – | EC50 ([1]; HD-MB03, Table 9, cancer cell proliferation inhibition): 1.6 µM; EC50 ([3]; Table 8, head names no target, BRDT by comparison with Table 4, read-out: EC50): 4400 nM; EC50 ([4]; Table 8, read-out: EC50 (μM) BRD2(1)): 1.4 µM; EC50 ([5]; Table 8, read-out: EC50 (μM) BRD2(2)): 0.14 µM; EC50 ([6]; Table 8, read-out: BRD3(1)): 0.9 µM; EC50 ([7]; HD-MB03, Table 9, c-Myc expression inhibition in HDMB03 cells): 5.1 µM
5 | – | – | – | – | – | – | – | 95 nM | 160 nM | 4.1 | 23 nM | 19.5 | 8.2 nM | 140 nM | 31.8 | 4.4 nM | 99 nM | 23.0 | 4.3 nM | CCCOc1cccc(-c2ccc3c(c2)[C@H](Nc2ccc(C(=O)OC)cc2)C[C@H](C)N3C(C)=O)c1 [compound 56] | – | EC50 ([3]; BRDT, Table 11 additional modifications, read-out: BRDT EC50): 12000 nM; EC50 ([4]; BRD2-BD1, Table 11 additional modifications, read-out: 2.1 EC50): 8.2 µM; EC50 ([5]; BRD2-BD2, Table 11 additional modifications, read-out: 2.2 EC50): 0.5 µM; 2.1/2.2 ([5]; ratio of BRD2-BD1 EC50 to BRD2-BD2 EC50 (selectivity)): 16; EC50 ([6]; BRD3-BD1, Table 11 additional modifications, read-out: 3.1 EC50): 8.1 µM; EC50 [16]: > 63000 nM
